Data taken from US20210038607A1, “OXADIAZOLYLTHIOPHENE DERIVATIVES USEFUL AS HISTONE DEACETYLASE INHIBITORS” (Karus Therapeutics Limited, priority 2018, published 2021).

Tests used:
Human HDAC9 = biological target: T1, Human HDAC9 (Homo sapiens, UniProt Q9UKV0); assay: HDAC9 biochemical assay, class IIa-specific substrate; conditions: read-out: HDAC Isoform IC50 (nM) 9
T1 construct: amino acids 604-1066 with C-terminal His tag; His (C); host or cells: baculovirus expression system
Procedure, shortened: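 HDAC9 residues 604-1066 (C-terminal His tag, baculovirus-expressed) at 0.06 ng/ul with 50 μM class IIa substrate Boc-Lys(trifluoroacetyl)-AMC in Tris-HCl pH 8.0 buffer with BSA and 1% DMSO. 30 min at room temperature, then developer added; fluorescence read at 360/460 nm Ex/Em.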

Recombinant human HDAC6 = biological target: T2, Recombinant human HDAC6 (Homo sapiens, UniProt Q9UBN7); assay: HDAC6 biochemical assay, AMC-labeled peptide substrate; conditions: HDAC6; read-out: HDAC Isoform IC50 (nM) 6
T2 construct: full length, MW=159 kDa; GST (N); host or cells: Sf9 insect cells (baculovirus)
T2 sequence (Q9UBN7 1-1215): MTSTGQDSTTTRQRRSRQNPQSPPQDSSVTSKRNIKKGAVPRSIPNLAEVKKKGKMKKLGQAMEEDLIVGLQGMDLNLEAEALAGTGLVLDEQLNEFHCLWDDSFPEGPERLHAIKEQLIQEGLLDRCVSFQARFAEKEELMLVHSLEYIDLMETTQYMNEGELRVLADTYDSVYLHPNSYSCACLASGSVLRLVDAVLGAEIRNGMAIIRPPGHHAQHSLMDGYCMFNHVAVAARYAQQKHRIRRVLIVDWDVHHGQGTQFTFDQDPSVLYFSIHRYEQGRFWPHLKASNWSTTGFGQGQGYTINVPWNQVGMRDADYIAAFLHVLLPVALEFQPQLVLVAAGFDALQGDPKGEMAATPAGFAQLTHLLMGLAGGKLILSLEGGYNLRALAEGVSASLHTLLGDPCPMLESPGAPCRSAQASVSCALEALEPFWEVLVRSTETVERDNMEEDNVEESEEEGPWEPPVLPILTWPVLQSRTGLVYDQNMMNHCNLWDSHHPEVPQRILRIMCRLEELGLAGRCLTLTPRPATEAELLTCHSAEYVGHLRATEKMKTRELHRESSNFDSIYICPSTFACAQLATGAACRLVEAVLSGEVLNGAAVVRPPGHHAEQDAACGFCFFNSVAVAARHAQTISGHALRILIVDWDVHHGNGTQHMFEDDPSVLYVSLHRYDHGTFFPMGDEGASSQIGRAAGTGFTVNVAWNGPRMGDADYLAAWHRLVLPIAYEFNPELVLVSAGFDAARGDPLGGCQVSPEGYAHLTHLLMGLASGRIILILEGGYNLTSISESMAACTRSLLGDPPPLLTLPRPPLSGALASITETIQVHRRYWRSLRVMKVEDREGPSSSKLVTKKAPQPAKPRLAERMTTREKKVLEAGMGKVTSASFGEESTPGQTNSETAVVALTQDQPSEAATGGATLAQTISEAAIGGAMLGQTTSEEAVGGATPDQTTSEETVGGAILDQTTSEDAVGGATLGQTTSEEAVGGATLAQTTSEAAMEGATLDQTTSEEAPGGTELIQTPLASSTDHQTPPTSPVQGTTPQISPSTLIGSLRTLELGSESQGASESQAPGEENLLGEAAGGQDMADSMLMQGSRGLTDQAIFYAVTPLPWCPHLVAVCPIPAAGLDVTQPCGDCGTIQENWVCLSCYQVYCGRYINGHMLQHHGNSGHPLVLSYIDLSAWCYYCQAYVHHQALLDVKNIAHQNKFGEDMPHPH
Procedure, shortened: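 Two-step fluorogenic read-out: enzyme deacetylates 50 μM RHKK(Ac)AMC for 1 h at 30° C in pH 8.0 Tris buffer with BSA and 1% DMSO, then developer cleavage gives signal at Ex 360/Em 460. Enzyme: 0.3 ng/ul recombinant full-length human HDAC6, GST-tagged, Sf9-expressed.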

Human HDAC8 = biological target: T3, Human HDAC8 (Homo sapiens, UniProt Q9BY41); assay: HDAC8 biochemical assay, AMC-labeled peptide substrate; conditions: read-out: HDAC Isoform IC50 (nM) 8
T3 construct: full length with C-terminal His tag, MW=42.6 kDa; His (C); host or cells: baculovirus expression system
T3 sequence (Q9BY41 1-377): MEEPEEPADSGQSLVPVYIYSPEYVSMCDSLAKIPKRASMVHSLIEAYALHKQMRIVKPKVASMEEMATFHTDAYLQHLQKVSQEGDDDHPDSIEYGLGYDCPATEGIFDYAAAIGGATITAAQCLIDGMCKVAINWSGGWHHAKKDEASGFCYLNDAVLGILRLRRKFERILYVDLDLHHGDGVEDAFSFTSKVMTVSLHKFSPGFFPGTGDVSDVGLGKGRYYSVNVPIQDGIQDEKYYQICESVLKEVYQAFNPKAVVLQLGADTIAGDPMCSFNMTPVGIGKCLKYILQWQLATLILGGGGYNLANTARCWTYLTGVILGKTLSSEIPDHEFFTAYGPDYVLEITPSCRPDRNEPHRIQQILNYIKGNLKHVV
Procedure, shortened: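 Two-step fluorogenic readout: compounds and enzyme deacetylate 100 µM RHK(Ac)K(Ac)AMC for 2 h at 30° C (pH8.0 Tris buffer, BSA, 1% DMSO final), then developer releases AMC, read at 360/460 Ex/Em. Enzyme: 1 ng/ul full-length His-tagged human HDAC8 from baculovirus.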

T1 sequence (Q9UKV0 604-1066 isoform Q9UKV0-5): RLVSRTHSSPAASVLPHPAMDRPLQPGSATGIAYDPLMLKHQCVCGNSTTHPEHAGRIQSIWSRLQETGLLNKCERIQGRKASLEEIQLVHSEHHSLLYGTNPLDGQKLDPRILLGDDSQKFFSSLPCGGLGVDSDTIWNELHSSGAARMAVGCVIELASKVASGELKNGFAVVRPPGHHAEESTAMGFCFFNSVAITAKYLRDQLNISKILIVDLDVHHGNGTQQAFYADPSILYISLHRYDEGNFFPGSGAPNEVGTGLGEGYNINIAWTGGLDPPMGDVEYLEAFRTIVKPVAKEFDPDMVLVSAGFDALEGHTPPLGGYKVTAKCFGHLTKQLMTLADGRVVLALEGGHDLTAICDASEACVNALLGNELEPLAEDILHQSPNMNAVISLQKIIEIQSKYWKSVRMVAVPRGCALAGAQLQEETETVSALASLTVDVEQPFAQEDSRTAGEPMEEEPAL

| SMILES | IC50 (Human HDAC9) [nM] | IC50 (Recombinant human HDAC6) [nM] | IC50 (Human HDAC8) [nM] |
| --- | --- | --- | --- |
| FC(F)(F)c1ccc(N(Cc2ccc(-c3noc(C(F)(F)F)n3)s2)c2cnccn2)nn1 [Example DH, N-(Pyrazin-2-yl)-6-(trifluoromethyl)-N-({5-[5-(trifluoromethyl)-1,2,4-oxadiazol-3-yl]thiophen-2-yl}methyl)pyridazin-3-amine] | ≤ 10000 | ≤ 500 | ≤ 10000 |
| FC(F)(F)c1nc(-c2ccc(CN(c3cnccn3)c3ccc(N4CCCC4)nn3)s2)no1 [Example DI, N-(Pyrazin-2-yl)-6-(pyrrolidin-1-yl)-N-({5-[5-(trifluoromethyl)-1,2,4-oxadiazol-3-yl]thiophen-2-yl}methyl)pyridazin-3-amine] | ≤ 10000 | ≤ 500 | ≤ 10000 |
| CS(=O)(=O)c1nccc(N(Cc2ccc(-c3noc(C(F)(F)F)n3)s2)c2cnccn2)n1 [Example CE, 2-Methanesulfonyl-N-(pyrazin-2-yl)-N-({5-[5-(trifluoromethyl)-1,2,4-oxadiazol-3-yl]thiophen-2-yl}methyl)pyrimidin-4-amine] | ≤ 10000 | ≤ 500 |  |

The remaining lines, values ahead:

| IC50 (Human HDAC9) [nM] | IC50 (Recombinant human HDAC6) [nM] | IC50 (Human HDAC8) [nM] | SMILES |
| --- | --- | --- | --- |
| ≤ 10000 | ≤ 500 | > 10000 | FC(F)(F)c1nc(-c2ccc(CN(c3ccccn3)c3cnccn3)s2)no1 [Example V, N-(Pyridin-2-yl)-N-({5-[5-(trifluoromethyl)-1,2,4-oxadiazol-3-yl]thiophen-2-yl}methyl)pyrazin-2-amine] |
| ≤ 500 | ≤ 500 | ≤ 10000 | FC(F)(F)c1nc(-c2ccc(CN(c3cncnc3)c3cnccn3)s2)no1 [Example CR, N-(Pyrazin-2-yl)-N-({5-[5-(trifluoromethyl)-1,2,4-oxadiazol-3-yl]thiophen-2-yl}methyl)pyrimidin-5-amine] |
| ≤ 500 | ≤ 500 | ≤ 10000 | FC(F)(F)c1nc(-c2ccc(CN(c3ccncn3)c3cnccn3)s2)no1 [Example BZ, N-(Pyrazin-2-yl)-N-({5-[5-(trifluoromethyl)-1,2,4-oxadiazol-3-yl]thiophen-2-yl}methyl)pyrimidin-4-amine] |
| ≤ 10000 | ≤ 500 | ≤ 10000 | CS(=O)(=O)c1ccc(N(Cc2ccc(-c3noc(C(F)(F)F)n3)s2)c2cnccn2)nn1 [Example DL, 6-Methanesulfonyl-N-(pyrazin-2-yl)-N-({5-[5-(trifluoromethyl)-1,2,4-oxadiazol-3-yl]thiophen-2-yl}methyl)pyridazin-3-amine] |
